How the values were obtained:
[1] = system: Subjects Having Insomnia Disorder; assay: Example 2: latency to persistent sleep (LPS), polysomnography; format: in vivo, human
Description: As used herein, the term “latency to persistent sleep”, abbreviated as “LPS.” means the minutes from lights off to the first epoch of 20 consecutive epochs (10 minutes) of non-wakefulness.
(§1) In some embodiments, a sleep parameter is determined objectively using polysomnography. Polysomnography is the monitoring of multiple electrophysiological parameters during sleep and generally includes measurement of EEG activity, electro-oculographic activity and electromyographic activity, as well as other measurements.
LPS—latency to persistent sleep: minutes from lights off to the first epoch of 20 consecutive epochs of non-wakefulness.
(§2) The treatment period lasted for 31 days. Subjects were randomized in a double-blind manner and received placebo, a tablet containing 5 mg of lemborexant, a tablet containing 10 mg of lemborexant, or a tablet containing 6.25 mg of zolpidem ER.
(§3) Within 5 minutes of the subject's mean habitual bedtime, study drug was administered and an overnight polysomnogram recording was initiated. At completion of the recording the following morning (Day 2), postural stability and cognitive performance were assessed. On the Day 2 evening, subjects returned to the clinic and a blood sample was collected before administering study drug, and then study drug was administered within 5 minutes of the subject's mean habitual bedtime. Again, a polysomnogram recording was initiated. The next morning (Day 3), postural stability and cognitive performance were assessed. A blood sample was also collected.
(§4) On Day 29, subjects returned to the clinic. Study drug was administered within 5 minutes of the subject's mean habitual bedtime and a polysomnogram recording was conducted. On the following morning (Day 30), postural stability and cognitive performance were assessed. After 1.5 hours of waketime, subjects rated their morning sleepiness level.
(§5) On the evening of Day 30, subjects returned to the clinic. A pre-dose blood sample was collected and study drug was again administered within 5 minutes of the subject's mean habitual bedtime. A polysomnogram recording was initiated. The following morning (Day 31), postural stability and cognitive performance were assessed and a blood sample was obtained. The ISI, FSS, EQ-5D-3L and PGI-Insomnia were administered. Blood and urine samples were collected for routine safety assessment. An electrocardiogram was performed, and vital signs and weight were assessed. The eC-SSRS was then administered to the subject. At 1.5 hours after waketime, subjects rated their morning sleepiness level.
The primary endpoint was to determine the change from baseline for mean latency to persistent sleep on days 29 and 30 of 5 mg or 10 mg lemborexant compared to placebo.

[2] = system: Subjects Having Insomnia Disorder; assay: Example 2: sleep efficiency (SE), polysomnography; format: in vivo, human
Description: as §1
SE—sleep efficiency: proportion of time spent asleep per time in bed, calculated as TST/interval from lights off until lights on.
as §2, §3, §4, §5
One key secondary endpoint was to determine the change from baseline for mean sleep efficiency on Days 29 and 30 after administration of 5 mg or 10 mg of lemborexant, compared to placebo.

[3] = system: Subjects Having Insomnia Disorder; assay: Example 2: total sleep time (TST), polysomnography; format: in vivo, human
Description: as §1
TST—total sleep time: minutes of sleep from sleep onset until terminal awakening.
as §2, §3, §4, §5

[4] = system: Subjects Having Insomnia Disorder; assay: Example 2: Insomnia Severity Index Daytime Functioning (Items 4-7); format: in vivo, human; conditions: for Insomnia Severity Daytime Functioning (Items 4-7), Change from Study Baseline, Mean (SD) / Insomnia Severity Daytime Functioning (Items 4-7), Change from Study Baseline, Median / Insomnia Severity Daytime Functioning (Items 4-7), Mean (SD) / Insomnia Severity Daytime Functioning (Items 4-7), Median: Day 31
From the text: As used herein, the term “Insomnia Severity Index”, abbreviated as “ISI”, is an index calculated using a 7-item, self-report questionnaire assessing the nature, severity, and impact of insomnia (see Bastien, C. H., et al. “Validation of the Insomnia Severity Index as an outcome measure for insomnia research.” Sleep Med. 2001; 2(4): 297-307). The questionnaire evaluates: (1) severity of sleep onset; (2) sleep maintenance; (3) early morning awakening problems; (4) sleep dissatisfaction; (5) interference caused by sleep difficulties with daytime functioning; (6) noticeability of sleep problems by others; and (7) distress caused by the sleep difficulties. A 5-point scale is used to rate each item (0=no problem to 4=very severe problem) yielding a total score from 0 to 28. Total ISI score (items (1)-(7)) and daytime functioning (items (4)-(7)) are analyzed separately.
On day 1 of the baseline period, subjects were admitted to the clinic and ISI, FSS, and EQ-5D-3L were administered. Blood and urine samples were collected for routine safety assessments, an ECG was performed, and vital signs and weight were assessed. The eC-SSRS was administered. Subjects who completed the baseline period and continued to meet the eligibility criteria were randomized and began the randomization phase.
as §5

[5] = system: Subjects Having Insomnia Disorder; assay: Example 2: auditory awakening threshold

## Cc1ncc(OC[C@@]2(c3cccc(F)c3)C[C@H]2C(=O)Nc2ccc(F)cn2)c(C)n1 [Lemborexant, (1R,2S)-2-(((2,4-dimethylpyrimidin-5-yl)oxy)methyl)-2-(3-fluorophenyl)-N-(5-fluoropyridin-2-yl)cyclopropanecarboxamide]
[1]; 5 mg vs zolpidem ER 6.25 mg, Days 1/2
  LPS LSM treatment ratio: Lemborexant/Zolpidem: 0.874
[1]; 5 mg vs zolpidem ER 6.25 mg, Days 29/30
  LPS LSM treatment ratio: Lemborexant/Zolpidem: 0.634
[1]; 5 mg, Days 1/2
  LPS LSM treatment ratio: Active/Placebo: 0.850
  LPS, Mean: 28.27 min
  LPS, Median: 21.63 min
[1]; 5 mg, Days 29/30
  LPS LSM treatment ratio: Active/Placebo: 0.773
  LPS, Mean: 25.84 min
  LPS, Median: 18.75 min
[1]; 5 mg, Study Baseline
  LPS, Mean: 44.86 min
  LPS, Median: 33.13 min
[1]; 5 mg, at Days 1/2
  LPS Change from Study Baseline, Mean: -16.59 min
  LPS Change from Study Baseline, Median: -10.00 min
[1]; 5 mg, at Days 29/30
  LPS Change from Study Baseline, Mean: -19.53 min
  LPS Change from Study Baseline, Median: -12.00 min
[1]; 10 mg vs zolpidem ER 6.25 mg, Days 1/2
  LPS LSM treatment ratio: Lemborexant/Zolpidem: 0.818
[1]; 10 mg vs zolpidem ER 6.25 mg, Days 29/30
  LPS LSM treatment ratio: Lemborexant/Zolpidem: 0.594
[1]; 10 mg, Days 1/2
  LPS LSM treatment ratio: Active/Placebo: 0.795
  LPS, Mean: 25.13 min
  LPS, Median: 21.75 min
[1]; 10 mg, Days 29/30
  LPS LSM treatment ratio: Active/Placebo: 0.723
  LPS, Mean: 22.75 min
  LPS, Median: 19.25 min
[1]; 10 mg, Study Baseline
  LPS, Mean: 44.61 min
  LPS, Median: 38.50 min
[1]; 10 mg, at Days 1/2
  LPS Change from Study Baseline, Mean: -19.48 min
  LPS Change from Study Baseline, Median: -10.50 min
[1]; 10 mg, at Days 29/30
  LPS Change from Study Baseline, Mean: -21.46 min
  LPS Change from Study Baseline, Median: -16.25 min
[1]; all lemborexant treatment groups, relative to baseline, placebo group, and zolpidem group (Table 13)
  mean latency to persistent sleep: reduced
[2]; Days 1/2, Lemborexant 5 mg
  Sleep Efficiency, Change from Study Baseline, Mean (SD): 13.60 (9.725)
  Sleep Efficiency, Change from Study Baseline, Median: 12.40
  Sleep Efficiency, Mean (SD): 81.96 (8.384)
  Sleep Efficiency, Median: 83.62
[2]; Days 1/2, Lemborexant 10 mg
  Sleep Efficiency, Change from Study Baseline, Mean (SD): 16.48 (9.623)
  Sleep Efficiency, Change from Study Baseline, Median: 15.47
  Sleep Efficiency, Mean (SD): 84.33 (7.608)
  Sleep Efficiency, Median: 85.73
[2]; Days 29/30, Lemborexant 5 mg
  Sleep Efficiency, Change from Study Baseline, LSM treatment difference: Lemborexant-Zolpidem: 3.92 (0.705)
  Sleep Efficiency, Change from Study Baseline, Mean (SD): 12.93 (9.741)
  Sleep Efficiency, Change from Study Baseline, Median: 11.85
  Sleep Efficiency, Mean (SD): 81.29 (8.800)
  Sleep Efficiency, Median: 83.26
[2]; Days 29/30, Lemborexant 10 mg
  Sleep Efficiency, Change from Study Baseline, LSM treatment difference: Lemborexant-Zolpidem: 4.88 (0.702)
  Sleep Efficiency, Change from Study Baseline, Mean (SD): 14.09 (10.514)
  Sleep Efficiency, Change from Study Baseline, Median: 13.57
  Sleep Efficiency, Mean (SD): 81.99 (8.801)
  Sleep Efficiency, Median: 83.52
[2]; all lemborexant treatment groups, relative to baseline, placebo and zolpidem treatment groups (Table 14)
  mean sleep efficiency: increased
[3]; Days 1/2, Lemborexant 5 mg
  Total Sleep Time, Change from Study Baseline, Mean (SD): 65.22 (46.695)
  Total Sleep Time, Change from Study Baseline, Median: 59.50
  Total Sleep Time, Mean (SD): 393.22 (40.346)
  Total Sleep Time, Median: 400.63
[3]; Days 1/2, Lemborexant 10 mg
  Total Sleep Time, Change from Study Baseline, Mean (SD): 79.58 (47.350)
  Total Sleep Time, Change from Study Baseline, Median: 74.25
  Total Sleep Time, Mean (SD): 404.65 (36.593)
  Total Sleep Time, Median: 411.50
[3]; Days 29/30, Lemborexant 5 mg
  Total Sleep Time, Change from Study Baseline, LSM treatment difference: Lemborexant-Zolpidem: 19.41 (3.457)
  Total Sleep Time, Change from Study Baseline, Mean (SD): 61.99 (46.817)
  Total Sleep Time, Change from Study Baseline, Median: 56.50
  Total Sleep Time, Mean (SD): 389.97 (42.437)
  Total Sleep Time, Median: 399.63
[3]; Days 29/30, Lemborexant 10 mg
  Total Sleep Time, Change from Study Baseline, LSM treatment difference: Lemborexant-Zolpidem: 24.10 (3.456)
  Total Sleep Time, Change from Study Baseline, Mean (SD): 67.86 (52.117)
  Total Sleep Time, Change from Study Baseline, Median: 65.13
  Total Sleep Time, Mean (SD): 393.16 (42.827)
  Total Sleep Time, Median: 400.88
[3]; all lemborexant treatment groups, relative to baseline, placebo and zolpidem treatment groups (Table 17)
  mean total sleep time: increased
[4]; Lemborexant 5 mg
  Insomnia Severity Daytime Functioning (Items 4-7), Change from Study Baseline, Mean (SD): −4.83 (3.593)
  Insomnia Severity Daytime Functioning (Items 4-7), Change from Study Baseline, Median: −4.00
  Insomnia Severity Daytime Functioning (Items 4-7), Mean (SD): 6.12 (3.488)
  Insomnia Severity Daytime Functioning (Items 4-7), Median: 6.00
[4]; Lemborexant 10 mg
  Insomnia Severity Daytime Functioning (Items 4-7), Change from Study Baseline, Mean (SD): −4.77 (3.735)
  Insomnia Severity Daytime Functioning (Items 4-7), Change from Study Baseline, Median: −4.00
  Insomnia Severity Daytime Functioning (Items 4-7), Mean (SD): 6.10 (3.617)
  Insomnia Severity Daytime Functioning (Items 4-7), Median: 6.00
[4]; lemborexant treatment groups, relative to baseline and the placebo treatment group (Table 23)
  mean insomnia severity index daytime score: reduced
[5]; Lemborexant 5 mg
  Auditory Awakening Threshold, LSM - Difference vs. Placebo: 1.7
  Auditory Awakening Threshold, Mean (SD): 51.8
  Auditory Awakening Threshold, Median: 50.0
[5]; Lemborexant 10 mg
  Auditory Awakening Threshold, LSM - Difference vs. Placebo: −0.9
  Auditory Awakening Threshold, Mean (SD): 51.7
  Auditory Awakening Threshold, Median: 52.5
[5]; Table 27
  ability to be awakened by an external stimulus (auditory awakening threshold): did not interfere with a subject's ability to be awakened by an external stimulus

Reference: patent US20220305012A1, “L[…] TREATING SLEEP ISSUES” (EISAI R&D MANAGEMENT CO., LTD., priority 2019, published 2022)
